This note sets out measurements from patent US12152038B2, “Vasopressin receptor antagonists and products and methods related thereto” (Neumora Therapeutics, Inc., priority 2017, dated 2024).

In this experiment the target is T1, human Arginine Vasopressin Receptor 1b (AVPR1b) (Homo sapiens, UniProt P47901).
T1 construct: expressed in transfected cells; host or cells: CHO (CHO-AVPR1b, kept under G418 selection)
T1 sequence (P47901 1-424): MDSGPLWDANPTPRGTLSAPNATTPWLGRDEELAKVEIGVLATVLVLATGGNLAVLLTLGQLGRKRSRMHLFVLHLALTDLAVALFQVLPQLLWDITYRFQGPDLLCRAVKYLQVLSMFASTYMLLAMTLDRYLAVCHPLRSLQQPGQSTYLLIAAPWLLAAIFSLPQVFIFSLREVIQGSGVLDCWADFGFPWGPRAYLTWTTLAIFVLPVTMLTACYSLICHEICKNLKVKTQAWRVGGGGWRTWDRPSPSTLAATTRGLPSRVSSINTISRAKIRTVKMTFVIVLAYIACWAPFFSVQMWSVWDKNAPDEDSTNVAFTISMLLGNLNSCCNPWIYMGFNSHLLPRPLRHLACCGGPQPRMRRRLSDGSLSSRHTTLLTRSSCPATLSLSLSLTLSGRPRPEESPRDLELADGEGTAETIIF
Kind of experiment: Vasopressin V1b receptor antagonist assay (FLIPR calcium, CHO-AVPR1b cells). In kind it is cell-based. The protocol:
The purpose of the assay was to determine the inhibitory effect of synthesized compounds on the Vasopressin V1b receptor. The assay was performed in Chinese Hamster Ovary (CHO) cells expressing the human Arginine Vasopressin Receptor 1b (AVPR1b). Arginine Vasopressin (AVP) evokes an increase in intracellular calcium in CHO-AVPR1b cells which is measured in a fluorescence assay on the FLIPR^TETRA using calcium sensitive dyes. Test compounds were assessed for their ability to affect the magnitude of the response to AVP, with antagonists showing a concentration-dependent reduction in the AVP-mediated fluorescence.
CHO-AVPR1b cells were maintained in routine culture in T175 Flasks at 37° C., 5% CO2. The growth medium consisted of Ham's F12 media supplemented with 10% v/v fetal bovine serum, 1× non-essential amino acids, and 0.4 mg/ml Geneticin G418.
Cells were harvested from T175 flasks when they were 80-90% confluent by first washing the cell monolayer with PBS and then dissociated using trypsin 0.05%/EDTA (3 mL for a T175 Flask). The flasks were incubated at room temperature until the cells detached. To the cell suspension, 10 ml of growth media was added and the cell density determined using the Vi-Cell automated cell counter. The cells were spun at 1000 rpm for 3 minutes, then the supernatant was carefully removed and discarded. The cell pellet was re-suspended at 6.0e^5 cells/ml in growth media. 25 μL of cells in growth media was dispensed into each well (15,000 cells per well) of a poly-D-lysine coated black, clear bottomed, 384-well plate. The plates were incubated at 37° C., 5% CO2 overnight.
At the start of each assay day, the potency of AVP was assessed and an EC80 concentration determined for subsequent compound profiling. Assays were performed using a two-step addition protocol on the FLIPR^TETRA; first addition of 5 μl of control or test compound at 10× final in assay buffer with 15 min incubation at 37° C., 5% CO2 followed by 10 μl of AVP at 6× final concentration in assay buffer. Changes in fluorescence were monitored for 3 min after both additions on the FLIPR^TETRA using 470-495 nm excitation and 515-575 nm emission wavelengths. The assay buffer consisted of HBSS (+Ca/+Mg) supplemented with 20 mM HEPES, and for the preparation of the AVP agonist only, 0.1% w/v bovine serum albumin. The assay was initiated by the removal of growth media from the cells and replacement with 45 μl of Calcium-6 dye (Molecular Devices) prepared at 1× in assay buffer. Cells were loaded with dye for 60-90 min at 37° C., 5% CO2 before initiation of the FLIPR^TETRA protocol. […] For compound profiling, test compounds were first serially diluted in DMSO (10-point curve, 1:3 dilutions) then diluted 33.3-fold in assay buffer prior to addition to the dye loaded cells on the FLIPR^TETRA. At the end of the incubation period 10 μl of AVP in assay buffer containing 0.1% BSA was added at the previously determined EC80 concentration.
In-plate controls for the assay included a Nelivaptan concentration-response curve as the reference V1b antagonist and an AVP concentration-response curve to confirm the reproducibility of the EC80 used for the compound challenge.
In general, IC50 refers to the midpoint of a concentration-inhibition curve. As for `CC1CN(C(=O)N2CC3(C2)CN(c2ccc(F)cn2)C3)c2ccc(Cl)cc2O1` (centres unmarked) [9-3], the half-inhibitory concentration (IC50) was at least 1000 nM.

For `CC1COc2cc(Cl)ccc2N1C(=O)N1CC2(C1)CN(c1cc(C#N)ccn1)C2` (centres unmarked) [20-6], the IC50 was at least 1000 nM. With `CC1COc2cc(F)ccc2N1C(=O)N1CC2(C1)CN(c1noc3ccccc13)C2` (single isomer, unassigned) [4-3-B], the IC50 was at least 1000 nM. With `CC1COc2cc(F)c(F)cc2N1C(=O)N1CC2(C1)CN(c1cccnn1)C2` (centres unmarked) [19-3], the concentration for half-maximal inhibition (IC50) was at least 1000 nM.

Regarding `Cc1cncc(N2CC3(CN(C(=O)N4c5ccc(F)cc5OCC4C)C3)C2)n1` (centres unmarked) [20-2], the concentration for half-maximal inhibition (IC50) was at least 1000 nM. With `CC1COc2cc(Cl)ccc2N1C(=O)N1CC2(C1)CN(c1cccnc1)C2` (centres unmarked) [20-1, (7-chloro-3-methyl-2,3-dihydro-4H-benzo[b][1,4]oxazin-4-yl)(6-(pyridin-3-yl)-2,6-diazaspiro[3.3]heptan-2-yl)methanone], the concentration for half-maximal inhibition (IC50) is at least 1000 nM. Turning to `CC1COc2cc(F)ccc2N1C(=O)N1CC2(C1)CN(c1noc3ccccc13)C2` (centres unmarked) [4-3], the half-maximal inhibitory concentration (IC50) was at least 1000 nM. For `CC1COc2cc(Cl)ccc2N1C(=O)N1CC2(C1)CN(c1noc3cccnc13)C2` (single isomer, unassigned) [18-3-B] the value was at least 1000 nM; for `O=C(N1CC2(C1)CN(c1ccc(F)cn1)C2)N1CCC(O)c2cc(Cl)ccc21` (single isomer, unassigned) [13-1-A], at least 1000 nM. Next, `Cc1nc(N2CC3(CN(C(=O)N4CCOc5cc(Cl)ccc54)C3)C2)ncc1F` [6-1, (7-chloro-2,3-dihydro-4H-benzo[b][1,4]oxazin-4-yl)(6-(5-fluoro-4-methylpyrimidin-2-yl)-2,6-diazaspiro[3.3]heptan-2-yl)methanone]: at least 1000 nM; `O=C(N1CC2(C1)CN(c1ccccn1)C2)N1CCC(O)c2cc(Cl)ccc21` (single isomer, unassigned) [13-2-B]: at least 1000 nM; `Cc1ccnc(N2CC3(CN(C(=O)N4c5ccc(Cl)cc5OCC4C)C3)C2)n1` (single isomer, unassigned) [20-12-B]: at least 1000 nM. Take `CC1COc2cc(Cl)ccc2N1C(=O)N1CC2(C1)CN(c1cccnn1)C2` (single isomer, unassigned) [9-1-A]: the half-inhibitory concentration (IC50) was at least 1000 nM. For `Cc1ccnc(N2CC3(CN(C(=O)N4c5ccc(Cl)cc5OCC4C)C3)C2)n1` (centres unmarked) [20-12] the value was at least 1000 nM. On to `CC1COc2cc(F)ccc2N1C(=O)N1CC2(C1)CN(c1ncc(F)cn1)C2` (single isomer, unassigned) [18-4-B], for which the half-inhibitory concentration (IC50) was at least 1000 nM. For `O=C(N1CC2(C1)CN(c1ccc(F)cn1)C2)N1CCOc2cc(Cl)ccc21` [9-7], the half-maximal inhibitory concentration (IC50) is at least 1000 nM.

Take `CC1COc2cc(Cl)c(F)cc2N1C(=O)N1CC2(C1)CN(c1ncccn1)C2` (single isomer, unassigned) [19-2-B]: the IC50 is at least 1000 nM. Take `O=C(N1CC2(C1)CN(c1cnccn1)C2)N1CCC(O)c2cc(Cl)ccc21` (single isomer, unassigned) [13-3-A]: the half-maximal inhibitory concentration (IC50) was at least 1000 nM. Next, `Cc1ccnc(N2CC3(CN(C(=O)N4CCOc5cc(Cl)ccc54)C3)C2)c1` [1-14]: at least 1000 nM.

In the case of `CCC1COc2cc(Cl)ccc2N1C(=O)N1CC2(C1)CN(c1ccccn1)C2` (centres unmarked) [11-1, (7-chloro-3-ethyl-2,3-dihydro-4H-benzo[b][1,4]oxazin-4-yl)(6-(pyridin-2-yl)-2,6-diazaspiro[3.3]heptan-2-yl)methanone], the IC50 was at least 1000 nM. Regarding `O=C(N1CC2(C1)CN(c1ccc(F)cn1)C2)N1CCOCc2cc(Cl)ccc21` [8-4], the IC50 was at least 1000 nM. `O=C(N1CC2(C1)CN(c1ccccn1)C2)N1CCOCc2cc(Cl)ccc21` [8-12]: the IC50 was at least 1000 nM. For the compound `CC1COc2cc(Cl)c(F)cc2N1C(=O)N1CC2(C1)CN(c1cccnn1)C2` (centres unmarked) [19-4], the IC50 was at least 1000 nM. Next, `O=C(N1CC2(C1)CN(c1ccccn1)C2)N1CCOc2cc(Cl)ccc21` [8-2]: at least 1000 nM. For the compound `O=C(N1CC2(C1)CN(c1noc3ccccc13)C2)N1CCOc2cc(Cl)ccc21` [4-1, (6-(benzo[d]isoxazol-3-yl)-2,6-diazaspiro[3.3]heptan-2-yl)(7-chloro-2,3-dihydro-4H-benzo[b][1,4]oxazin-4-yl)methanone], the IC50 was at least 1000 nM. As for `CC1COc2cc(F)c(F)cc2N1C(=O)N1CC2(C1)CN(c1ncccn1)C2` (single isomer, unassigned) [19-1-B], the half-maximal inhibitory concentration (IC50) is at least 1000 nM.

On to `O=C(N1CC2(C1)CN(c1ccc(F)cn1)C2)N1CCC(F)(F)c2cc(Cl)ccc21` [17-1, (6-chloro-4,4-difluoro-3,4-dihydroquinolin-1(2H)-yl)(6-(5-fluoropyridin-2-yl)-2,6-diazaspiro[3.3]heptan-2-yl)methanone], for which the IC50 was at least 1000 nM. For `Cc1nc(N2CC3(CN(C(=O)N4c5ccc(Cl)cc5OCC4C)C3)C2)ncc1F` (single isomer, unassigned) [20-7-B] the value was at least 1000 nM.

As for `CC1COc2cc(F)c(F)cc2N1C(=O)N1CC2(C1)CN(c1ccc(F)cn1)C2` (single isomer, unassigned) [19-5-B], the IC50 was at least 1000 nM.

As for `COc1ccnc(N2CC3(CN(C(=O)N4CCOc5cc(Cl)ccc54)C3)C2)c1` [1-15], the half-inhibitory concentration (IC50) was at least 1000 nM. Turning to `CC1COc2cc(Cl)ccc2N1C(=O)N1CC2(C1)CN(c1noc3cccnc13)C2` (centres unmarked) [18-3], the 50% inhibitory concentration (IC50) is at least 1000 nM. In the case of `CC1COc2cc(F)ccc2N1C(=O)N1CC2(C1)CN(c1cc(C#N)ccn1)C2` (single isomer, unassigned) [20-3-B], the concentration for half-maximal inhibition (IC50) is at least 1000 nM. As for `O=C(N1CC2(C1)CN(c1ccccn1)C2)N1CCC(O)c2cc(Cl)ccc21` (single isomer, unassigned) [13-2-A], the IC50 was at least 1000 nM. As for `COc1ccnc(N2CC3(CN(C(=O)N4c5ccc(Cl)cc5OCC4C)C3)C2)n1` (single isomer, unassigned) [20-9-B], the half-maximal inhibitory concentration (IC50) was at least 1000 nM. As to `CC1COc2cc(F)c(F)cc2N1C(=O)N1CC2(C1)CN(c1cccnn1)C2` (single isomer, unassigned) [19-3-B], the IC50 was at least 1000 nM.
